In patent US20160024597A1, “miRNAs AS THERAPEUTIC TARGETS IN CANCER” (The Research Foundation For The State University Of New York, priority 2009, published 2016):

What was measured:
[1] = system: CD133+hi/CD44+hi colon cancer stem-like cells; assay: 5-FU cell death assay, FITC Annexin V and PI flow cytometry; assay type: cell-based; details: FACS-sorted CD133+hi/CD44+hi cells, lethal dose of 5-FU (100 μM) for 48 h
Protocol: HCT 116 (wt-p53) cells were sorted with multiparametric flow cytometry with BD FACS Aria cell sorter (Becton Dickinson, CA) at sterile conditions. Cells were prepared as described above and labeled with one or several markers conjugated anti-human CD133-PE (clone 105902; R&D Systems, MN); CD44-FITC (clone F10-44-2, R&D Systems, MN). Antibodies were diluted in buffer containing 5% BSA, 1 mM EDTA and 15-20% blocking reagent (Miltenyi Biotec, CA) to inhibit unspecific binding to non-target cells. After 15 min incubation at 4° C., stained cells were washed, resuspended in 500 μl of MACS buffer and sorted.
(§1) Colon cancer stem-like cells were transfected with 100 nM of LNA anti-miR-140 using Lipofectamine 2000 after FACS-sorting. […] The dead cells were determined by the fluorescein isothiocyanate (FITC) Annexin V and PI detection kit (BD Biosciences, Pharmingen, San Diego, Calif., USA). Briefly, cells were harvested and resuspended in 1× Annexin V binding and stained with Annexin V (5 μl) and PI (5 μl) for 15 min at room temperature in the dark. After additional 400 μl of binding buffer, cells were analyzed by flow cytometry. […]

[2] = system: nonsorted control HCT 116 (wt-p53) cells; assay: as above; assay type: cell-based, human; details: lethal dose of 5-FU (100 μM) for 48 h
Protocol: as §1

[3] = system: MG63 cells (mut-p53); assay: WST-1 cell proliferation assay after miR-140 transfection; assay type: cell-based; details: 100 nM transfected, day 5, n=6
Protocol: (§2) Cells were plated in six-well plates at a density of 2×10^5 cells/well. The next day, cells were transfected with 100 nM of miR-140 precursor or non specific miR control (Ambion, Inc.) with Oligofectamine (Invitrogen Inc.) based on the manufacturer's instructions. Positive control siRNA specific against HDAC4 (ON-TARGET plus SMARTpool L-003497-00-0010, human HDAC4, NM 006037) was purchased from Dharmacon and transfected with Oligofectamine according to the manufacturer's protocols at a final concentration of 100 nM.
(§3) Cells were plated in 96-well plates with 6 repeats at 2,000 cells/well after transfection with miR-140 or miR control. Cells were cultured for 24, 48, 72, 96 and 120 h. The absorbance at 450 and 630 nm was measured after incubation with 10 μl of WST-1 for 1 h.

[4] = system: U-2 OS cells (wt-p53); assay: as above; assay type: cell-based; details: U-2 OS (wt-p53), 100 nM transfected, day 5, n=6
Protocol: as §2, §3

[5] = system: HCT 116 (null-p53) cells; assay: as above; assay type: cell-based, human; details: 100 nM transfected, day 5, n=6
Protocol: as §2, §3

[6] = system: HCT 116 (wt-p53) cells; assay: as above; assay type: cell-based, human; details: 100 nM transfected, day 5, n=6
Protocol: as §2, §3

[7] = system: MG63 cells (mut-p53); assay: Cell cycle analysis by flow cytometry; assay type: cell-based; details: 100 nM, 36 h after transfection
Protocol: (§4) Cells were transfected with miR-140 and miR control described as above. At 36 h after transfection, cells were harvested and resuspended at 0.5-1×10^5 cells/ml in modified Krishan buffer (He, 2007; Tarasov, 2007), containing 0.1% sodium citrate and 0.3% NP-40 and kept at 4° C. Before being analyzed by flow cytometry, cells were treated with 0.02 mg/ml RNase H and stained with 0.05 mg/ml propidium iodide (Sigma).

[8] = system: U-2 OS cells (wt-p53); assay: Cell cycle analysis by flow cytometry; assay type: cell-based; details: U-2 OS (wt-p53), 100 nM, 36 h after transfection, vs miR control
Protocol: as §4

[9] = system: HCT 116 (null-p53) cells; assay: Cell cycle analysis by flow cytometry; assay type: cell-based, human; details: 100 nM, 36 h after transfection
Protocol: as §4

[10] = system: HCT 116 (wt-p53) cells; assay: Cell cycle analysis by flow cytometry; assay type: cell-based, human; details: 100 nM, 36 h after transfection, vs miR control
Protocol: as §4

[11] = system: HDAC4 mRNA; assay: HDAC4 mRNA expression by real time qRT-PCR; assay type: cell-based, human; details: U-2 OS (wt-p53) and HCT 116 (wt-p53) cells, 100 nM, 24 hrs, GAPDH normalized
Protocol: as §2
Total RNA, including miRNAs, was isolated from cell lines or clinical specimens by using TRIzol reagent (Invitrogen, Inc.) according to the manufacturer's instructions to determine whether the cells were transfected with miR control, miR-140 or siHDAC4 at a final concentration of 100 nM for 24 hrs before RNA isolation.
cDNA was synthesized with the High Capacity cDNA synthesis kit (Applied Biosystems) using 2 μg of total RNA as the template and 10× random primers. Real-time qPCR analysis was done on the experimental mRNAs. The PCR primers and probes for HDAC4, and the internal control gene GAPDH were purchased from Applied Biosystems. qRT-PCR was done on an ABI 7500HT instrument under the following conditions: 50° C., 2 min for one cycle; 95° C., 10 min; 95° C., 15 s; 60° C., 1 min for 40 cycles (n=3).

[12] = system: HDAC4 protein; assay: HDAC4 protein expression by Western immunoblot after transfection; assay type: cell-based, human; details: U-2 OS (wt-p53) and HCT 116 (wt-p53) cells, 100 nM, 48 h after transfection
Protocol: as §2
Forty-eight hours after transfection with miR-140 or miR control, cells were harvested and lysed in 1×RIPA buffer (Sigma) supplied with 100 uM PMSF (sigma) and proteinase inhibitor cocktail (Sigma). Equal amounts of protein were resolved by a 8% SDS-PAGE gels using the method of Laemmli (Laemmli, 1970), and transferred to polyvinylidene fluoride membranes (BIO-RAD Laboratories). The membranes were then blocked by 5% nonfat milk in TBST (Tris-buffered saline and 1% Tween-20) at room temperature for 1 h. The primary antibodies used for the analysis included goat anti-HDAC4 polyclonal Ab (1:1000, N-18), mouse anti-p53 mAb (1:1000, DO-1), mouse anti-p21 mAb(1:1000, F-5), mouse anti-tubulin mAb (1:1000, TU-02), all from Santa Cruz Biotechnology. […]

[13] = system: p53; assay: p53 expression by Western immunoblot; assay type: cell-based; details: U-2 OS (wt-p53) and HCT 116 (wt-p53) cells, 48 h after transfection
Protocol: (§5) Forty-eight hours after transfection with miR-140 or miR control, cells were harvested and lysed in 1×RIPA buffer (Sigma) supplied with 100 uM PMSF (sigma) and proteinase inhibitor cocktail (Sigma). Equal amounts of protein were resolved by a 8% SDS-PAGE gels using the method of Laemmli (Laemmli, 1970), and transferred to polyvinylidene fluoride membranes (BIO-RAD Laboratories). The membranes were then blocked by 5% nonfat milk in TBST (Tris-buffered saline and 1% Tween-20) at room temperature for 1 h. The primary antibodies used for the analysis included goat anti-HDAC4 polyclonal Ab (1:1000, N-18), mouse anti-p53 mAb (1:1000, DO-1), mouse anti-p21 mAb(1:1000, F-5), mouse anti-tubulin mAb (1:1000, TU-02), all from Santa Cruz Biotechnology. Horseradish peroxidase-conjugated antibodies against mouse or goat (1:1000, Santa Cruz Biotechnology) were used as the secondary antibodies. Protein bands were visualized with a chemiluminescence detection system using Super Signal substrate (Pierce).

[14] = system: p21; assay: p21 expression by Western immunoblot; assay type: cell-based; details: U-2 OS (wt-p53) and HCT 116 (wt-p53) cells, 48 h after transfection
Protocol: as §5

[15] = system: HCT 116 (wt-p53) cells; assay: Chemosensitivity assay to methotrexate (WST-1); assay type: cell-based, human; details: 100 nM transfected, methotrexate 10-1000 nM for 72 h, vs miR control
Protocol: U-2 OS and HCT 116 (wt-p53) cells were replated in 96-well plates at 2×10^3 cells/well in triplicate after transfected with miR-140, miR control, or siRNA against HDAC4 in 100 μl of medium. Twenty-four hours later, methotrexate (ranged from 10-1000 nM) was added and incubated for 72 h. Ten μl of WST-1 (Roche Applied Science) was added to each well. After 1 h incubation, absorbance was measured at 450 and 630 nm respectively. Non-specific miRNA was used as the negative control.

[16] = system: HCT 116 (wt-p53) cells; assay: Chemosensitivity assay to 5-fluorouracil (WST-1); assay type: cell-based, human; details: 100 nM transfected, 5-FU 2 to 100 μM for 72 h, vs miR control
Protocol: HCT 116 (wt-p53) cells were replated in 96-well plates at 2×10^3 cells per well in triplicate after transfected with miR-140, miR control or siRNA against HDAC4 in 100 μl of medium. After 24 h, 5-FU (ranged from 2 to 100 μM) was added and incubated for 72 h. WST-1 (10 μl) was added to each well. After 1 h incubation, absorbance was measured. Nonspecific miR was used as the negative control.

| Compound | cell death [1] | cell death [2] | suppression of cellular proliferation [3] | suppression of cellular proliferation [4] | suppression of cellular proliferation [5] | suppression of cellular proliferation [6] | G1 and G2 arrest [7] | G1 arrest [8] | G2 arrest [8] | G1 and G2 arrest [9] | G1 arrest [10] | G2 arrest [10] | HDAC4 mRNA expression [11] | HDAC4 protein expression [12] | p53 protein expression [13] | p21 protein expression [14] | chemosensitivity to methotrexate of transfected cells [15] | chemosensitivity to 5-fluorouracil of transfected cells [16] |
| --- | --- | --- | --- | --- | --- | --- | --- | --- | --- | --- | --- | --- | --- | --- | --- | --- | --- | --- |
| O=c1[nH]cc(F)c(=O)[nH]1 [5-FU, 5-fluorouracil] | about 20% | > 80% | – | – | – | – | – | – | – | – | – | – | – | – | – | – | – | – |
| miR-140: miR-140 precursor (Ambion) transfected at 100 nM to overexpress human miR-140 (SEQ ID NO:1/2) (chain 1 AGUGGUUUUACCUAUGGUAG; chain 2 CAGUGGUUUUACCCUAUGGUAG; listed as RNA, chemistry not given here; listed as Homo sapiens) | – | – | 31.3±4.96% | 64.05±4.01% | 22.42±1.88% | 81.4±3.75% | has not been observed | 1.76 fold | 0.92 fold | has not been observed | 3.33 fold | 2.54 fold | no change | clearly decreased | increased | increased | more resistant | more resistant |
